Where “and” joins values, the source holds several entries; their conditions need not be identical. Equal entries are not always repeated.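 Test compounds were applied to cells in 96-well plates for 48 hours at 5 doses. Here, GI50 denotes the concentration required for 50% inhibition of growth. At the TGI there is no net growth.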
Columns and labels:
Experiment in all cases: growth of human tumour cells (NCI), 48 h
MDA-MB-231 breast = tested on: MDA-MB-231 breast
SN12C renal = tested on: SN12C renal
SF-268 CNS = tested on: SF-268 CNS
OVCAR-4 ovarian = tested on: OVCAR-4 ovarian
SF-295 CNS = tested on: SF-295 CNS
OVCAR-8 ovarian = tested on: OVCAR-8 ovarian
HOP-92 NSCLC = tested on: HOP-92 NSCLC
CAKI-1 renal = tested on: CAKI-1 renal
A498 renal = tested on: A498 renal
K-562 leukemia = tested on: K-562 leukemia

SMILES	TGI (MDA-MB-231 breast) [µM]	TGI (SN12C renal) [µM]	TGI (SF-268 CNS) [µM]	TGI (OVCAR-4 ovarian) [µM]	TGI (SF-295 CNS) [µM]	TGI (OVCAR-8 ovarian) [µM]	TGI (HOP-92 NSCLC) [µM]	TGI (CAKI-1 renal) [µM]	TGI (A498 renal) [µM]	TGI (K-562 leukemia) [µM]	GI50 (MDA-MB-231 breast)	GI50 (SN12C renal) [µM]	GI50 (SF-268 CNS) [µM]	GI50 (OVCAR-4 ovarian) [µM]	GI50 (OVCAR-8 ovarian) [µM]	GI50 (A498 renal) [µM]	GI50 (SF-295 CNS) [µM]	GI50 (HOP-92 NSCLC) [µM]	GI50 (CAKI-1 renal) [µM]	GI50 (K-562 leukemia) [µM]
C=CCSC1=N/C(=C\c2ccc(Cl)cc2)C(=O)N1CC=C	> 100	95.1	> 100	94.7	> 100	> 100	82.2	> 100	52.4	> 100										
O=C1[C@H](O)[C@@H]2C(O)O[C@H]3[C@@H]2N1C[C@H]3[Si](c1ccccc1)(c1ccccc1)c1ccccc1 (some centres not stated)	> 100		> 100	> 100	> 100	> 100		> 100	> 100	> 100										
NC(=O)CNC(=O)[C@@H]1CC(OCCC(=O)O)CN1C(=O)C1CCCN1C(=O)OCc1ccccc1 (some centres not stated)	> 100	> 100	> 100	> 100	> 100	> 100			> 100	> 100										
COc1cc2c(c3c1c(=O)c1ccccc1n3C)C=CC1(CCCC1)O2	38.2	37.2	46.8	25.8	12.1	57.8	31.7	6.33	31.9	21.7										
O=S1(=O)c2ccccc2Oc2ccc(C(/C=N/O)=N/O)cc21	> 100	> 100	> 100	> 100	51.2	47.7	> 100	42.2		> 100										
CN(C)CCNc1ccc2c(=O)n(CCN(C)C)c(=O)n3c4ccc(O)cc4c(=O)c1c23	0.12		0.416	0.38	0.148	0.358	0.0941		0.515											
C1=C(c2ccccc2)SC(N2CCCCC2)S1 (configuration not stated)		> 100	> 100	> 100	> 100		> 100		> 100	> 100										
CCOC(=O)c1c(C)n(Cc2ccc(Cl)cc2Cl)c2c1cc(O)c1[nH]c3c(c12)CCCC3	> 100	58.6	56.4	41.7	97.2	53.5	43	56.4	38.6											
CCn1nc(C)c2c1C(=O)NCC(=O)N2		> 100	> 100	> 100	> 100	> 100	> 100	> 100	> 100											
Nc1n(CC(=O)c2ccccc2)nc2sc(-c3ccccc3)n[n+]12		> 100	62.5	> 100	55	38.8		91.7	86.9	> 100										
C=CCn1c(=O)c(C)cn(COCCO)c1=O	> 100	> 100	> 100			> 100	> 100	> 100		> 100										
CC(=O)c1c(-c2cccc3ccccc23)c(C#N)c(=S)n(C2OC(CO)C(O)C(O)C2O)c1C (configuration not stated)	> 100	> 100	> 100	> 100	> 100	> 100	> 100	> 100	> 100	> 100	> 100 µM and 37.5 µM									
O=c1[nH]/c(=C/c2ccc(OCc3ccccc3)cn2)c(=O)[nH]/c1=C/c1ccccc1	> 100		> 100	> 100	> 100	> 80.9	> 100	> 100	> 100	> 100										
S=C1c2ccc(Cl)cc2-n2cnnc2C2CSCN12 (configuration not stated)	> 100	> 100	> 100	> 100	> 100	> 100		> 100	> 100	27.7										
CC(=O)NC1C(OCc2ccccc2)OC(CO)C(O)C1OCC(=O)N1CCCC1C(=O)N[C@@H](CCC(=O)NCCCCNc1c2ccccc2nc2cccc([N+](=O)[O-])c12)C(N)=O (some centres not stated)		> 100	> 100	> 100	> 100	> 100	28.7	> 100	> 100	> 100										
Cc1ccc(C)c(NC(=O)C(=O)C(C(=O)c2ccc3ccccc3c2)C2OC(=O)c3ccccc32)c1 (configuration not stated)		39.8	23.2	> 100	66.2	20.3	78	52.6	47.4	> 100										
NC(=O)Nc1c(Cl)cc(S(N)(=O)=O)cc1Cl	> 100	> 100	> 100	> 100	> 100	> 100	> 100	> 100		> 100										
CN(C)CC(O)c1ccc(Cl)c2ccccc12 (configuration not stated)	> 73.4	> 100	> 100	> 100	> 63.6	> 100	> 68.2	> 96.6	45.9											
CCN(CCCOc1ccccc1)CCN(CC)CCCOc1ccccc1	39.7	44.8	28.4	37.5	41	38		34		15.5										
CN1CCC(CNc2cc(C3(C(=O)Nc4cc(C(=O)Nc5ccc(Cl)c(C(F)(F)F)c5)ccc4F)CC3)ncn2)CC1	2.99	8.92	5.5	39.5		14.9			7.87		1.42 µM	2.56	2.08	13.6	3.72	2.52				
CC1=NNC(=O)C1C1C(=O)NN=C(c2c[nH]c3ccccc23)C1Br (configuration not stated)	> 100	> 100	> 100		54.7	> 100	> 100	> 100	> 100	> 100										
O=C(Nc1ccc(N2C(=O)CSC2c2ccccc2O)cc1)c1ccc(N2C(=O)CSC2c2ccccc2O)cc1 (configuration not stated)	> 100	> 100	> 100	> 100	> 100	> 100	86.4	> 100		> 100										

SMILES	TGI (MDA-MB-231 breast) [µM]	TGI (SN12C renal) [µM]	TGI (SF-268 CNS) [µM]	TGI (OVCAR-4 ovarian) [µM]	TGI (SF-295 CNS) [µM]	TGI (OVCAR-8 ovarian) [µM]	TGI (HOP-92 NSCLC) [µM]	TGI (CAKI-1 renal) [µM]	TGI (A498 renal) [µM]	TGI (K-562 leukemia) [µM]	GI50 (MDA-MB-231 breast)	GI50 (SN12C renal) [µM]	GI50 (SF-268 CNS) [µM]	GI50 (OVCAR-4 ovarian) [µM]	GI50 (OVCAR-8 ovarian) [µM]	GI50 (A498 renal) [µM]	GI50 (SF-295 CNS) [µM]	GI50 (HOP-92 NSCLC) [µM]	GI50 (CAKI-1 renal) [µM]	GI50 (K-562 leukemia) [µM]
COc1cc2c(c(O)c1O)C(=O)C1CCC(=O)N1C2c1cccc2ccccc12 (configuration not stated)		> 50	> 50	> 50	> 50	> 50	> 50		> 50	> 50										
N=C1C(=N)c2ccccc2-c2ccccc21.[Cl-].[Ru+2].c1ccc(-c2ccccn2)nc1.c1ccc(-c2ccccn2)nc1		> 100	> 100	> 100	> 100	> 100	> 100			> 100										
CCCCCOc1ccc(C=Nc2ccc(CCc3ccc(N=Cc4ccc(OCCCCC)cc4)cc3)cc2)cc1		> 100	> 100	> 100	> 100	> 100	> 100		> 100	> 100										
Cc1ccc(S(=O)(=O)NC(=O)Nc2nnc(S(N)(=O)=O)s2)cc1	> 100		> 100	> 100	> 100	> 100	> 100	> 100	> 100	> 100										
CC(C)/C(Cl)=N/OC(=O)Nc1ccc(Br)cc1	31.2	4.62	34	31.8	28.8	27.8	3.35	3.2	33.8											
C#CCNC(CSSCC(N)C(=O)O)C(=O)O (configuration not stated)	> 100		> 100	> 100	> 100	> 100	> 100	> 100	> 100											
O=c1[nH]c(Nc2ccccc2)nc2c1ncn2CC(O)CSCCO (configuration not stated)	> 100	> 100	> 100	> 100	> 100	> 100	> 100	> 100	> 100											
c1ccc(-c2csc3c4ccccc4c4ccccc4[n+]23)cc1		11.2	9.65	18.3	16	17.9	24.9	> 36	33.4	> 30.7										
COC(=O)C1(NC(=O)C(CC(=O)OCc2ccccc2)NC(=O)OCc2ccccc2)CCCCCC1 (configuration not stated)	> 100		> 100	43.8	> 100	90.5	> 100	48.5		82.9										
C[C@@H]1OC(=O)C[C@H]2CC(=O)N(CCC3CN(C(=O)OCc4ccccc4)c4ccccc43)C[C@@H]21 (some centres not stated)	> 100		> 100	> 100	> 100	> 100	> 100	> 100	> 100	> 100										
O=C(/C=C(/C=C/c1ccc2[nH]ccc2c1)OB(F)F)/C=C/c1ccc2[nH]ccc2c1	> 100	18.9	6.41	6.46	> 100	> 100	> 100	10.1	6.71		3.38 µM	2.6	1.51	0.726	2.51	2.61	2.28	2.68	2.56	
COc1ccc(N2CC(=O)N(C(=O)COc3ccc(OCC(=O)N4C(=O)CN(c5ccc(OC)cc5)C4=S)cc3)C2=S)cc1	> 100	> 100	> 100	> 100	> 100		> 100	> 100	> 100	> 100										
CCO/C(=N/S(=O)(=O)C(F)(F)F)N(C(C)C)C(C)C	> 100	> 100	> 100	> 100		> 100	> 100	> 100	> 100											
CCOC(=O)C(C#N)(Cc1c[nH]c2ccccc12)NC(C)=O (configuration not stated)		> 100	> 100	> 100	> 100	> 100	> 100	> 100		> 100										
CCOC(=O)c1ccc(-n2[nH]nc(C(N)=O)c2=O)cc1	> 100	> 100	> 100	> 100	> 100	> 100		> 100		> 100										
Cc1ccc2c(c1)-c1nc(N)c(C#N)c(-c3ccc(Cl)cc3)c1CCS2(=O)=O	> 100	> 100	> 100	> 100		> 100	> 100	> 100	92.1											
C[C@H](c1ccccc1)N1C(=O)[C@@H](O)[C@H]1[C@H](CO)OCc1ccccc1	> 100	> 100	> 100	> 100	> 100	> 100	> 100		> 100	> 100										
CC(C)(C)c1ccccc1N1C(=O)c2ccc3c4c(ccc(c24)C1=O)N(c1ccccc1C(C)(C)C)C3=O	> 100	> 100	> 100	> 100	> 100	> 100	> 100	> 100		> 100										
CCCCN(CCCC)Cc1cc(Nc2ccnc3cc(Cl)ccc23)ccc1O			> 100	> 100		> 100	22.9			> 100			> 100	> 100	9.03			0.982		2.3
CCNCCNC(=O)c1ccc(I)cc1		> 100	> 100	> 100		> 100	> 100	> 100	> 100	> 100										
Cc1cc([NH-])c([NH-])cc1C.[Cl][Pt+2][Cl]		24.6	34.6	31.7	16.1	> 55.5	40.7	27.6	> 87.6	> 41.5		8.13	6.27	16.9	16.8	33.4	3.36	16.2	12	
C=CCC1(C#N)C(=S)NC2=C(C(=O)CC(C)(C)C2)C1c1ccccc1 (configuration not stated)	> 100	> 100		88.9		53.1	90.2	> 100		> 100										

From PubChem BioAssay (NCI)
